Source: patent US7790143B2, “Vaccines for immunization against helicobacter” (priority 2005, dated 2010)

Assays:
Design in all cases: key: R: resistant; S: susceptible; I: intermediate
H. trogontum = settings: 30 μg; taxon 9 H. trogontum; cited from earlier work
H. pylori = settings: 30 μg; taxon 6 H. pylori; cited from earlier work
H. mustelae = settings: 30 μg; taxon 10 H. mustelae; cited from earlier work
H. acinonychis = settings: 30 μg; taxon 7 H. acinonychis; cited from earlier work
H. felis = settings: 30 μg; taxon 4 H. felis; cited from earlier work
H. bizzozeronii = settings: 30 μg; taxon 3 H. bizzozeronii; cited from earlier work
H. muridarum = settings: 30 μg; taxon 12 H. muridarum; cited from earlier work
H. aurati = settings: 30 μg; taxon 13 H. aurati; cited from earlier work
H. bilis = settings: 30 μg; taxon 8 H. bilis; cited from earlier work
H. salomonis = settings: 30 μg; taxon 5 H. salomonis; cited from earlier work
H. baculiformis M50T = assay: Susceptibility to antimicrobials (30 μg); type: cell-based; settings: taxon 1 H. baculiformis (this study)
Description: Data were obtained from Bronsdon et al. (1991), Dewhirst et al. (2000a), Eaton et al. (1993), Fox et al. (1988, 1995), Hänninen et al. (1996, 2005), Jalava et al. (1997) Int J Syst Bacteriol 47, 975-982, Lee et al. (1988, Infect Immun 56, 2843-2850, 1992), Mendes et al. (1996); Patterson et al. (2000), Van den Buick et al. (2006, Int J Syst Evol Microbiol 56, 1559-1564).

H. nemestrinae = settings: 30 μg; taxon 11 H. nemestrinae; cited from earlier work

SMILES | Susceptibility to (H. trogontum) | Susceptibility to (H. pylori) | Susceptibility to (H. mustelae) | Susceptibility to (H. acinonychis) | Susceptibility to (H. felis) | Susceptibility to (H. bizzozeronii) | Susceptibility to (H. muridarum) | Susceptibility to (H. aurati) | Susceptibility to (H. bilis) | Susceptibility to (H. salomonis) | Susceptibility to (H. baculiformis M50T) | Susceptibility to (H. nemestrinae)
CC(=O)OCC1=C(C(=O)O)N2C(=O)[C@@H](NC(=O)Cc3cccs3)[C@H]2SC1 [Cephalothin] | R | S | R | S | S | S | R | R | R | S | R | S
CCn1cc(C(=O)O)c(=O)c2ccc(C)nc21 [Nalidixic acid] | R | R | S | R | R | R | R | S | R | R | I | R
